The values that follow come from patent US20210154190A1, “SHP2 INHIBITOR COMPOSITIONS AND METHODS FOR TREATING CANCER” (Revolution Medicines, Inc., priority 2018, published 2021).

Each structure is given as a SMILES string. Where a chain is given by its changes, count along the chain named. pIC50: −log10 of the molar value. “And” between values parts separate entries of the source, which are not always exact repeats. Identical values can stand only once. Like-named read-outs stand apart in the source and are kept apart here.

Common to all, as to assay type: biochemical
One assay has as its target T1, human SHP2-FL S189A (Homo sapiens, UniProt Q06124, S189A).
T1 sequence (Q06124 1-593 S189A): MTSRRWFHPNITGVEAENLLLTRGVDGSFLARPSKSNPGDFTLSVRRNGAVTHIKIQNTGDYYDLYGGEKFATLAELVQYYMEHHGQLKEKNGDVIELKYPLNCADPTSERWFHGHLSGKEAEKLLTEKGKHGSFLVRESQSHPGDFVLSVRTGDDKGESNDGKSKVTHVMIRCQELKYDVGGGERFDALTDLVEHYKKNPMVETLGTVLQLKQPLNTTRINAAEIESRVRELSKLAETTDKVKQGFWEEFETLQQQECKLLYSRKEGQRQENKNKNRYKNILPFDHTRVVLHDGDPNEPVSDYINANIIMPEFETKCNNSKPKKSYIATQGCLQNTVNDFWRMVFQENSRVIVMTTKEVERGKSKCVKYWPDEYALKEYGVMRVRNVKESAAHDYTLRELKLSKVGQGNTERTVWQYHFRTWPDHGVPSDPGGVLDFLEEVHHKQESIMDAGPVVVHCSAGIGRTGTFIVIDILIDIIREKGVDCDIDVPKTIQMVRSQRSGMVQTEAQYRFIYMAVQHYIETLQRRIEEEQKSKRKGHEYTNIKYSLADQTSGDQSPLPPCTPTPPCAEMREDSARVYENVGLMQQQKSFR
The assay is described as follows: SHP2 allosteric inhibition assay (DiFMUP), S189A. How it is done: (§1) Full-length SHP2 is allosterically activated through binding of bis-tyrosyl-phorphorylated peptides to its Src Homology 2 (SH2) domains. The latter activation step leads to the release of the auto-inhibitory interface of SHP2, which in turn renders the SHP2 protein tyrosine phosphatase (PTP) active and available for substrate recognition and reaction catalysis. The catalytic activity of SHP2 was monitored using the surrogate substrate DiFMUP in a prompt fluorescence assay format.
(§2) […] […] 50 μl stop solution (0.1 mM sodium pervanadate) was added to each well, the plate was shaken briefly to mix, and read in endpoint mode on a SpectraMax M5 plate reader (Molecular Devices) using excitation and emission wavelengths of 340 nm and 450 nm. Data was imported into GraphPad Prism. Plots of fluorescence intensity vs. log Molar [compound] were created and modeled with a 3-parameter sigmoidal concentration response equation in order to estimate IC50.
(§3) Reactions were then allowed to proceed for 30 minutes and stopped by the addition of a phosphatase inhibitor, sodium pervanadate. De-phosphorylation of DiFMUP results in production of a fluorescent product. Product fluorescence was determined and plotted as a function of compound concentration in order to determine the IC50 for each compound on each mutant using a four parameter sigmoidal dose response function in Prism (GraphPad).
(§4) NsCs mimics the role of the cytosolic domain of a protein tyrosine kinase in this model system.

The next assay deals with T2, human SHP2-FL L262R (Homo sapiens, UniProt Q06124, L262R).
T2 sequence (Q06124 1-593 L262R): T1 sequence (Q06124 1-593 S189A) with A189S, L262R
The assay is described as follows: SHP2 allosteric inhibition assay (DiFMUP), L262R. The method, then: as §1, §2, §3, §4

Another assay has as its target T3, human SHP2-FL S502P (Homo sapiens, UniProt Q06124, S502P).
T3 sequence (Q06124 1-593 S502P): T1 sequence (Q06124 1-593 S189A) with A189S, S502P
The assay is described as follows: SHP2 allosteric inhibition assay (DiFMUP), S502P. The method, then: as §1, §2, §3, §4

A word on the pIC50: it is the IC50 on a negative log10 scale, so that one unit is a factor of ten. Regarding `Nc1nc(N2CCC3(CCC[C@H]3N)CC2)cnc1Sc1ccnc(Cl)c1Cl` [Compound 1], the IC50 on human SHP2-FL S189A (IC50 (nM), SHP2 S189A 0.5 μM NsCs peptide (Activated), human SHP2-FL S189A, 0.5 μM NsCs peptide (activated)) was 3.38 nM and 3.76 nM and 2.99 nM and 3.79 nM; on human SHP2-FL S189A (human SHP2-FL S189A alone, no peptide (non-activated), read-out: IC50 (nM), SHP2 S189A No Peptide Control (Non-Activated)), 3.01 nM and 3.35 nM and 2.75 nM and 3.11 nM; on human SHP2-FL S189A (human SHP2-FL S189A alone, no peptide (non-activated), read-out: pIC50, SHP2 S189A No Peptide Control (Non-Activated) (converted)) it was 3.02 nM and 3.31 nM and 2.75 nM and 3.09 nM; at human SHP2-FL L262R (IC50 (nM), SHP2 L262R 0.5 μM NsCs peptide (Activated), human SHP2-FL L262R, 0.5 μM NsCs peptide (activated)), 79.4 nM and 62.2 nM and 69.2 nM and 74.6 nM; at human SHP2-FL L262R (human SHP2-FL L262R alone, no peptide (non-activated), read-out: IC50 (nM), SHP2 L262R No Peptide Control (Non-Activated)), 2.83 nM and 3.37 nM and 2.75 nM and 3.43 nM; on human SHP2-FL L262R (human SHP2-FL L262R alone, no peptide (non-activated), read-out: pIC50, SHP2 L262R No Peptide Control (Non-Activated) (converted)), 2.82 nM and 3.39 nM and 2.75 nM. Further, the IC50 was greater than 10000 nM at human SHP2-FL S502P (IC50 (nM), SHP2 S502P 0.5 μM NsCs peptide (Activated), human SHP2-FL S502P in presence of 0.5 μM NsCs peptide (activated)); 237 nM and 227 nM and 221 nM and 308 nM at human SHP2-FL S502P (human SHP2-FL S502P alone, no peptide (non-activated), read-out: IC50 (nM), SHP2 S502P No Peptide Control (Non-Activated)); 234 nM and 229 nM and 219 nM and 309 nM at human SHP2-FL S502P (human SHP2-FL S502P alone, no peptide (non-activated), read-out: pIC50, SHP2 S502P No Peptide Control (Non-Activated) (converted)). The negative logarithm of the IC50 (pIC50) against human SHP2-FL S189A (pIC50, SHP2 S189A 0.5 μM NsCs peptide (Activated), human SHP2-FL S189A, 0.5 μM NsCs peptide (activated)) is 8.47 and 8.43 and 8.52 and 8.42; against human SHP2-FL L262R (pIC50, SHP2 L262R 0.5 μM NsCs peptide (Activated), human SHP2-FL L262R, 0.5 μM NsCs peptide (activated)), 7.10 and 7.21 and 7.16 and 7.13; on human SHP2-FL S502P (pIC50, SHP2 S502P 0.5 μM NsCs peptide (Activated), human SHP2-FL S502P in presence of 0.5 μM NsCs peptide (activated)), less than 5.00.
With `Cc1nc(N2CCC3(CC2)CO[C@@H](C)[C@H]3N)c(CO)nc1-c1cccc(Cl)c1Cl` [Compound B], the Biochemical sensitivity result at human SHP2-FL S189A (Variant S189A) is “yes (Sensitive if IC50 < 2000 nM)”; on human SHP2-FL L262R (Variant L262R), “yes (Sensitive if IC50 < 2000 nM)”; on human SHP2-FL S502P (Variant S502P), “no (Sensitive if IC50 < 2000 nM)”.
